Experimental data reported in US20240210412A1, “SULFONYL-TRIAZOLE COMPOUNDS USEFUL AS LIGANDS AND INHIBITORS OF PROSTAGLANDIN REDUCTASE 2” (University of Virginia Patent Foundation, priority 2021, published 2024).
Entries after “also recorded” stand apart in the source; their conditions may differ.

Experiments:
Assay type in all cases: cell-based
Q9H009 = Q9H009 (Homo sapiens, UniProt Q9H009); assay: SILAC LC-MS ABPP; conditions: 25 μM 2 h, live DM93 cells
Outline: (§1)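 Chemical proteomics in DM93 melanoma, light/heavy SILAC pairs. Vehicle versus 25 μM covalent sulfonyl-triazole for 2 h (37 °C) in serum-free medium was followed by 100 μM HHS-475 labelling for 2 h; tyrosine sites were identified and quantified by LC-MS/MS of avidin-enriched tryptic peptides.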

P19174 = biological target: T1, P19174 (Homo sapiens, UniProt P19174); assay: SILAC LC-MS ABPP; conditions: 25 μM 2 h, live DM93 cells
T1 construct: endogenous in cells; host or cells: DM93 (SILAC)
Outline: as §1

[1] = biological target: T2, Fumarylacetoacetase (FAH) (Homo sapiens, UniProt P16930); assay: gel-based ABPP, HHS-475 probe, HEK293T cells expressing recombinant FAH; conditions: live HEK293T cells, ligand 25 μM or varying, 2 h; HHS-475 100 μM
T2 construct: FLAG; host or cells: HEK293T
Procedure: HEK293T cells at 30-50% confluency were transfected with 2.6 μg of FAH or PTGR2 plasmid DNA in a serum-free media/polyethyleneimine solution for 48 hrs. The cells were washed once with warm, sterile DPBS (1×, 5 mL), and then 10 mL of serum-free media (supplemented with 1% L-glutamine) containing either DMSO or SuTEx fragment (in DMSO) was added. After 2 hrs, the cells were treated with 100 μM of SuTEx alkyne probe (HHS-475, 10 μL of 1000× DMSO stock) and incubated for an additional 2 hrs. The media was aspirated and cells washed with cold PBS (5 mL) and harvested. Cells were spun at 500×g for 5 min at 4° C. and supernatant was removed. Pellets were resuspended in 1 mL of cold DPB S and spun at 1,400×g for 3 min at 4° C. and supernatant was removed. […] The samples were analyzed by SDS-PAGE (30 μL) and imaged by in-gel fluorescence scanning.
Competitive gel-based chemoproteomic assays were performed using recombinant proteins from select targets to verify our LC-MS findings. […] Quantitative chemical proteomic studies identified HHS-0401 as a ligand for the Y244 site of FAH. These findings were confirmed by treating HEK293T cells expressing recombinant FAH with SuTEx ligands (25 μM, 2 hours, 37° C.) followed by labeling with HHS-475 probe (100 μM, 2 hours, 37° C.), cell lysis, and conjugation with rhodamine azide by CuAAC to visualize probe-modified proteins using in-gel fluorescence scanning.

T2 sequence (P16930 whole entry): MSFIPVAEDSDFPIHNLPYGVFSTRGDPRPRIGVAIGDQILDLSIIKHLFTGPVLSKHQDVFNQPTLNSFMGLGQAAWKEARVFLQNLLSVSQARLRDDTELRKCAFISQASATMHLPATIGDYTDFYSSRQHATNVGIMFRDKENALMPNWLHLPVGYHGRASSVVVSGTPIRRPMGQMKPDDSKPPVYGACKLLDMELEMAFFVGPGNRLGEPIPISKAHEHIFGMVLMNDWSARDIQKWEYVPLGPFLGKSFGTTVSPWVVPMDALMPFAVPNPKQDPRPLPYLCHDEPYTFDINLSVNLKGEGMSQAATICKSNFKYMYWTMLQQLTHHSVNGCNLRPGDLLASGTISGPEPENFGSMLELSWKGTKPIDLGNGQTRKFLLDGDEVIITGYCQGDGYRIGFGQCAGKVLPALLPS
T1 sequence (P19174 whole entry): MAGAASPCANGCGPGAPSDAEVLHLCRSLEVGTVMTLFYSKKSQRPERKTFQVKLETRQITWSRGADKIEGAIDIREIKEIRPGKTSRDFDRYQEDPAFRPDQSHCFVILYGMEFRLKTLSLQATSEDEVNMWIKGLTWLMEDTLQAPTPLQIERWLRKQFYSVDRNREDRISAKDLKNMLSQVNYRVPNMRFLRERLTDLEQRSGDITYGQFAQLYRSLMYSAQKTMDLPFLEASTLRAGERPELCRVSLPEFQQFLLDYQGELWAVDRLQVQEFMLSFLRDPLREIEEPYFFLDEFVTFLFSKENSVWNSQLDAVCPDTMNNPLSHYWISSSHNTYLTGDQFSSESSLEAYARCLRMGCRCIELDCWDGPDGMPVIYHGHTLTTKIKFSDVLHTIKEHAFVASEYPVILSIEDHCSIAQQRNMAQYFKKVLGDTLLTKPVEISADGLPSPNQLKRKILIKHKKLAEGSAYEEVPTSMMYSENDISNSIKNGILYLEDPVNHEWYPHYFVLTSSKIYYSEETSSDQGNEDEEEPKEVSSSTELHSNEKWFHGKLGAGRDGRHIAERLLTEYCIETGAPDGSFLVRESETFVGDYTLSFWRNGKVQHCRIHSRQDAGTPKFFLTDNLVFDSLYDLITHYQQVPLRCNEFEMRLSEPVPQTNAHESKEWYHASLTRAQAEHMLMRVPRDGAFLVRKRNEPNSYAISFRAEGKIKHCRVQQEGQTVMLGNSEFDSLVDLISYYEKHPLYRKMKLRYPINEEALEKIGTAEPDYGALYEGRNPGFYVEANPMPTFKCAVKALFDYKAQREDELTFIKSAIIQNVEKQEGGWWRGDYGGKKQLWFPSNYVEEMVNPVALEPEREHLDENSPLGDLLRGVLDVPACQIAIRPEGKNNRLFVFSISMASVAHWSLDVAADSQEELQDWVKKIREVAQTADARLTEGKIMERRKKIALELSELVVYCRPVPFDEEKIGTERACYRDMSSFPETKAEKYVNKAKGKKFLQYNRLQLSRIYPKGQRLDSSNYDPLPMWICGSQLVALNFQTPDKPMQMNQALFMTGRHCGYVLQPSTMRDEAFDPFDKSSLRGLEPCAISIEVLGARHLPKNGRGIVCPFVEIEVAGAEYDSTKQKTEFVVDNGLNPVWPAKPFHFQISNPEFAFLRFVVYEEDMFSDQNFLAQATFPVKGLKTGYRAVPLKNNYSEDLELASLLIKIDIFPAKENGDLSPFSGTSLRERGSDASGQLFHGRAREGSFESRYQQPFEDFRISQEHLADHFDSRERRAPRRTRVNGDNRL

## O=C(NC1CC1)c1ccc(S(=O)(=O)n2cncn2)cc1 [HHS-0101, 4-((1H-1,2,4-triazol-1-yl)sulfonyl)-N-cyclopropylbenzamide]
Q9H009
  liganded tyrosine site 112: HHS0101.Y|HHS0201.Y|HHS0301.Y|HHS0401.Y|HHS0701.Y (tyrosine sites that showed >80% reductions (SR >5) in probe labeling in cells treated with compounds (liganded sites))

## O=C(NCC1CC1)c1ccc(S(=O)(=O)n2cncn2)cc1 [HHS-0201, 4-((1H-1,2,4-triazol-1-yl)sulfonyl)-N-(cyclopropylmethyl)benzamide]
P19174
  liganded tyrosine site 472: HHS0201.Y (tyrosine sites that showed >80% reductions (SR >5) in probe labeling in cells treated with compounds (liganded sites))

## O=C(NCc1ccccc1)c1ccc(S(=O)(=O)n2cncn2)cc1 [HHS-0401, 4-((1H-1,2,4-triazol-1-yl)sulfonyl)-N-benzylbenzamide]
[1]
  blockade of HHS-475 labeling of FAH: blocked HHS-475 labeling of FAH; also recorded: competing probe labeling of recombinant FAH in a concentration-dependent manner
